In one test the target is T1, Human DYRK1B (Homo sapiens, UniProt Q9Y463).
T1 construct: purchased Invitrogen PR8350B (former PV4649)
The test can be described thus: DYRK1B Kinase TR-FRET (IMAP-Tb) Assay. The settings on record: for IC50: TR-FRET, ATP 70 μM, 37° C. for 60 minutes, averages of multiple runs, read-out: Enzyme IC50 DYRK1B; for inhibition at 10 µM: 10 μM test compound, reported where IC50 was not determined, read-out: Enzyme DYRK1B % inhibition at 10 μM test compound concentration. The format is biochemical. The source says: The kinase TR-FRET (IMAP-Tb) assay uses a fluorescence labeled substrate peptide in the kinase reaction. Upon phosphorylation by the kinase, phosphopeptide is produced, which will be detected by the binding solution provided in IMAP TR-FRET binding kit. After the completion of the kinase reaction, the reaction will be stopped by adding the binding solution containing terbium tracer. This tracer is immobilized on the surface of the IMAP beads, which also contain metal ions on the beads that bind to the phospho-groups of the products. Thus the phosphorylated product of the reaction can enter into close proximity to the tracer, producing resonance energy transfer. Due to the long lifetime of terbium (Tb) fluorescence the detection can be run in time resolved mode, which virtually eliminates fluorescence interference from assay components or compounds. […] IC50 is the amount of test compound that inhibits 50% of the activity of DYRK1B in this assay. […] 1. Human DYRK1B: from Invitrogen. Part # PR8350B (former PV4649) 2. Substrate Peptide: RRRFRPASPLRGPPK 3. IMAP TR-FRET IPP Explorer Kit: from Molecular Devices. Part # R8157 4. Kinase Assay Buffer (KAB): 10 mM HEPES pH 7.0, 50 mM NaCl, 5 mM MgCl2, 1 mM DTT, 1 mM NaVO4, 200 μg/mL BSA (0.02%) 5. Assay Plate: Remp polypropylene clear 384-well microplate. Cat#23490-102 6. Detection Plate: Costa black 384-well microplate. Cat #3710 Assay Procedure: This assay was performed as follows: 1. Transfer 1.5 μL of 20× compound solution to each well of an assay plate. 2. Add to each well 22.5 μL of KAB Buffer. 3. Add to each well 3 μL of the solution of DYRK1B and ATP. […] Add to each well 3 μL of the substrate peptide. […] Incubate the assay plates at 37° C. for 60 minutes. 6. Add 18 μL of Detection Solution (1:800 diluted Progress bead stock, 1:400 diluted Tb stock, 80% Buffer A, and 20% Buffer B) into each well of detection plates. 7. Transfer 6 μL of assay solution from the assay plate to the detection plate. 8. Shake detection plates for 30 minutes. 9. Read plates in Envision with wavelength set at excitation 340 nm for Tb, emission 490 nm, and […]. 10. Calculation: TR-FRET Signal=(Reading at […])×2000000
(In TR-FRET formats the signal depends on donor and acceptor labels being close together.)

In another test the target is T2, Human DYRK1A (Homo sapiens, UniProt Q13627).
T2 construct: purchased Invitrogen PV3997
In words: DYRK1A Kinase TR-FRET (IMAP-Tb) Assay. In kind it is biochemical. The settings on record: for IC50: TR-FRET, ATP 70 μM, 37° C. for 60 minutes, averages of multiple runs, read-out: Enzyme IC50 DYRK1A; for inhibition at 10 µM: 10 μM test compound, reported where IC50 was not determined, read-out: Enzyme DYRK1A % inhibition at 10 μM test compound concentration. The source says:
The kinase TR-FRET (IMAP-Tb) assay uses a fluorescence labeled substrate peptide in the kinase reaction. Upon phosphorylation by the kinase, phosphopeptide is produced, which will be detected by the binding solution provided in IMAP TR-FRET binding kit. After the completion of the kinase reaction, the reaction will be stopped by adding the binding solution containing terbium tracer. This tracer is immobilized on the surface of the IMAP beads, which also contain metal ions on the beads that bind to the phospho-groups of the products. Thus the phosphorylated product of the reaction can enter into close proximity to the tracer, producing resonance energy transfer. Due to the long lifetime of terbium (Tb) fluorescence the detection can be run in time resolved mode, which virtually eliminates fluorescence interference from assay components or compounds.
The TR-FRET signal measurement from this assay, given as an IC50 measurement, is a measure of a test compound's ability to interfere with the phosphorylation of the peptide substrate, that is it inhibits the phosphorylation of the substrate peptide by DYRK1A, and is thus a measure of the test compound's ability to inhibit the activity of DYRK1A.
1. Human DYRK1A: from Invitrogen. Part # PV3997
2. Substrate Peptide: […]
3. IMAP TR-FRET IPP Explorer Kit: from Molecular Devices. Part # R8157 4. Kinase Assay Buffer (KAB): 10 mM HEPES pH 7.0, 50 mM NaCl, 5 mM MgCl2, 1 mM DTT, 1 mM NaVO4, 200 μg/mL BSA (0.02%) 5. Assay Plate: Remp polypropylene clear 384-well microplate. […] Detection Plate: Costa black 384-well microplate. […] Transfer 1.5 μL of 20× compound solution to each well of an assay plate. 2. Add to each well 22.5 μL of KAB Buffer. 3. Add to each well 3 μL of the solution of DYRK1A and ATP. […] Add to each well 3 μL of the substrate peptide. The assay concentration is 1.0 μM 5. Incubate the assay plates at 37° C. for 60 minutes. 6. Add 18 μL of Detection Solution (1:800 diluted Progress bead stock, 1:400 diluted Tb stock, 80% Buffer A, and 20% Buffer B) into each well of detection plates. 7. Transfer 6 μL of assay solution from the assay plate to the detection plate. 8. Shake detection plates for 30 minutes. 9. Read plates in Envision with wavelength set at excitation 340 nm for Tb, emission 490 nm, and […].

For orientation: IC50 means the point on the concentration scale where inhibition reaches its midpoint.

T1 sequence (Q9Y463 whole entry): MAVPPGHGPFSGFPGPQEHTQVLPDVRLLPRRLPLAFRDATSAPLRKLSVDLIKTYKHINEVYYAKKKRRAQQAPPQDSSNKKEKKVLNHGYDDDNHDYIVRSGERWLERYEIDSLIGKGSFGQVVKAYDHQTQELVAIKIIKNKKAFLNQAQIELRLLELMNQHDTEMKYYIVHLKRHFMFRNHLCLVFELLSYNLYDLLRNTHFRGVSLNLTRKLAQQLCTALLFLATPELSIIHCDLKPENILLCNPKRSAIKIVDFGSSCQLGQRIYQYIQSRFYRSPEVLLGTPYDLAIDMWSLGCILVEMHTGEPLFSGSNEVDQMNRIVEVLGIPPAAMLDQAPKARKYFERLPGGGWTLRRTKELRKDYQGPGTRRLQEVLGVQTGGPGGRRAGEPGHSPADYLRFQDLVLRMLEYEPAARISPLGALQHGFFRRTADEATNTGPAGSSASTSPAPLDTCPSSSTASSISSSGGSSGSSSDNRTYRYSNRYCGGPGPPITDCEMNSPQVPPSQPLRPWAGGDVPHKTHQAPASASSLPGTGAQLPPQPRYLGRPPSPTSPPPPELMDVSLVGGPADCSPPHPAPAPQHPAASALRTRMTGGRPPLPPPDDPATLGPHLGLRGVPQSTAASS

Turning to `COc1cc2cc(C(=O)Nc3ccncc3C)c(=O)[nH]c2cc1OC` [Example 21, 6,7-Dimethoxy-2-oxo-1,2-dihydro-quinoline-3-carboxylic acid (3-methyl-pyridin-4-yl)-amide], the IC50 was 5480 nM on Human DYRK1B and above 10000 nM on Human DYRK1A.
For `COCCOc1cc2cc(C(=O)Nc3cc(-c4nnn[nH]4)ccc3C)c(=O)[nH]c2cc1OC` [Example 24, 7-Methoxy-6-(2-methoxy-ethoxy)-2-oxo-1,2-dihydro-quinoline-3-carboxylic acid [2-methyl-5-(1H-tetrazol-5-yl)-phenyl]-amide], the half-inhibitory concentration (IC50) on Human DYRK1B came out at 2670 nM; on Human DYRK1A it was 1760 nM.
As for `COC(=O)c1ccc(C)c(NC(=O)C2Cc3cc(OC)c(OC)cc3NC2=O)c1` (stereo not drawn) [Example 72, 3-[(6,7-Dimethoxy-2-oxo-1,2,3,4-tetrahydro-quinoline-3-carbonyl)-amino]-4-methyl-benzoic acid methyl ester], the half-maximal inhibitory concentration (IC50) at Human DYRK1B is 1800 nM; at Human DYRK1A, 5590 nM.
On to `COCCOc1cc2[nH]c(=O)c(C(=O)Nc3cc(C(=O)OC)ccc3C)cc2cc1OC` [Example 26, 3-{[6-Methoxy-7-(2-methoxy-ethoxy)-2-oxo-1,2-dihydro-quinoline-3-carbonyl]-amino}-4-methyl-benzoic acid methyl ester], for which the IC50 at Human DYRK1B was 6420 nM; on Human DYRK1A it was 5140 nM.
Turning to `COc1cc2cc(C(=O)Nc3cc(C(=O)NCCCN4CCOCC4)ccc3C)c(=O)[nH]c2cc1OC` [Example 32, 6,7-Dimethoxy-2-oxo-1,2-dihydro-quinoline-3-carboxylic acid [2-methyl-5-(3-morpholin-4-yl-propylcarbamoyl)-phenyl]-amide], the 50% inhibitory concentration (IC50) on Human DYRK1B is above 10000 nM; at Human DYRK1A, 3620 nM.
As to `COCCOc1cc2[nH]c(=O)c(C(=O)Nc3cc(-c4nnn[nH]4)ccc3C)cc2cc1OC` [Example 27, 6-Methoxy-7-(2-methoxy-ethoxy)-2-oxo-1,2-dihydro-quinoline-3-carboxylic acid [2-methyl-5-(1H-tetrazol-5-yl)-phenyl]-amide], the IC50 on Human DYRK1B turned out to be 6590 nM. Besides, the inhibition at 10 µM at Human DYRK1A amounted to 41%.
Regarding `COC(=O)c1ccc(Cl)c(NC(=O)C2Cc3cc(OC)c(OC)cc3NC2=O)c1` (stereo not drawn) [Example 71, 4-Chloro-3-[(6,7-dimethoxy-2-oxo-1,2,3,4-tetrahydro-quinoline-3-carbonyl)-amino]-benzoic acid methyl ester], the half-maximal inhibitory concentration (IC50) at Human DYRK1B was 860 nM; at Human DYRK1A it was 690 nM.
For the compound `COc1cc2cc(C(=O)Nc3cc(C(=O)N[C@@H](CO)c4ccccc4)ccc3C)c(=O)[nH]c2cc1OC` [Example 56, (R)-N-(5-(2-Hydroxy-1-phenylethylcarbamoyl)-2-methylphenyl)-6,7-dimethoxy-2-oxo-1,2-dihydroquinoline-3-carboxamide], the IC50 on Human DYRK1B is above 10000 nM. Also, on Human DYRK1A, the inhibition at 10 µM came out at 31%.
As to `COc1cc2cc(C(=O)Nc3cc(C(=O)N(C)C)ccc3Cl)c(=O)[nH]c2cc1OC` [Example 20, 6,7-Dimethoxy-2-oxo-1,2-dihydro-quinoline-3-carboxylic acid (2-chloro-5-dimethylcarbamoyl-phenyl)-amide], the concentration for half-maximal inhibition (IC50) at Human DYRK1B came to 5090 nM; at Human DYRK1A, 1130 nM.
`COc1cc2cc(C(=O)Nc3cc(C(=O)NC(CCN)c4ccccc4)ccc3C)c(=O)[nH]c2cc1OC` (stereo in doubt) [Example 48, 6,7-Dimethoxy-2-oxo-1,2-dihydro-quinoline-3-carboxylic acid [5-((S)-3-amino-1-phenyl-propylcarbamoyl)-2-methyl-phenyl]-amide]: on Human DYRK1B, the inhibition at 10 µM came out at 39%. Further, the IC50 at Human DYRK1A is 1020 nM.
Consider `COc1cc2cc(C(=O)Nc3cc(C(=O)NCC4CCCCC4)ccc3C)c(=O)[nH]c2cc1OC` [Example 41, 6,7-Dimethoxy-2-oxo-1,2-dihydro-quinoline-3-carboxylic acid [5-(cyclohexylmethyl-carbamoyl)-2-methyl-phenyl]-amide], for which the IC50 at Human DYRK1B is 2590 nM; on Human DYRK1A, 4590 nM.
On the same counts, the results for `COCCOc1cc2cc(C(=O)Nc3cc(C(=O)OC)ccc3C)c(=O)[nH]c2cc1OCCOC` [Example 25, 3-{[6,7-Bis-(2-methoxy-ethoxy)-2-oxo-1,2-dihydro-quinoline-3-carbonyl]-amino}-4-methyl-benzoic acid methyl ester] are 911 nM and 604 nM.
As for `COc1cc2cc(C(=O)Nc3cc(-c4ncco4)ccc3C)c(=O)[nH]c2cc1OC` [Example 51, 6,7-Dimethoxy-2-oxo-1,2-dihydro-quinoline-3-carboxylic acid (2-methyl-5-oxazol-2-yl-phenyl)-amide], the inhibition at 10 µM on Human DYRK1B was 42%. For the same compound, on Human DYRK1A, the IC50 was 592 nM.
For `COc1cc2cc(C(=O)Nc3cc(-c4nnn[nH]4)ccc3C)c(=O)[nH]c2cc1OC` [Example 22, 6,7-Dimethoxy-2-oxo-1,2-dihydro-quinoline-3-carboxylic acid [2-methyl-5-(1H-tetrazol-5-yl)-phenyl]-amide], the IC50 was 719 nM at Human DYRK1B and above 10000 nM at Human DYRK1A.
Turning to `COCCOCCOc1cc2cc(C(=O)Nc3cc(C(=O)NCc4cccc(Cl)c4)ccc3C)c(=O)[nH]c2cc1OC` [Example 70, 7-Methoxy-6-[2-(2-methoxy-ethoxy)-ethoxy]-2-oxo-1,2-dihydro-quinoline-3-carboxylic acid [5-(3-chloro-benzylcarbamoyl)-2-methyl-phenyl]-amide], the IC50 was determined as 1690 nM at Human DYRK1B and 67 nM at Human DYRK1A.
Turning to `COc1cc2cc(C(=O)Nc3cc(C(=O)NC(CO)C(C)C)ccc3C)c(=O)[nH]c2cc1OC` (stereo not drawn) [Example 33, 6,7-Dimethoxy-2-oxo-1,2-dihydro-quinoline-3-carboxylic acid [5-(1-hydroxymethyl-2-methyl-propylcarbamoyl)-2-methyl-phenyl]-amide], the inhibition at 10 µM on Human DYRK1B and at Human DYRK1A was 36% in each case.
As to `COc1cc2[nH]c(=O)c(C(=O)Nc3cc(C(=O)NCc4cccc(Cl)c4)ccc3C)cc2cc1O` [Example 68, 6-Hydroxy-7-methoxy-2-oxo-1,2-dihydro-quinoline-3-carboxylic acid [5-(3-chloro-benzylcarbamoyl)-2-methyl-phenyl]-amide], the concentration for half-maximal inhibition (IC50) on Human DYRK1B is 189 nM; at Human DYRK1A, 58 nM.
In the case of `COc1cc2cc(C(=O)Nc3cc(C(=O)N[C@@H](CO)CC(C)C)ccc3C)c(=O)[nH]c2cc1OC` [Example 66, (R)-N-(5-(1-Hydroxy-4-methylpentan-2-ylcarbamoyl)-2-methylphenyl)-6,7-dimethoxy-2-oxo-1,2-dihydroquinoline-3-carboxamide], the inhibition at 10 µM on Human DYRK1B is 13%. For the same compound, on Human DYRK1A, the IC50 is above 10000 nM.

These data come from US20120184548A1, “CARBOXYLIC ACID ARYL AMIDES” (priority 2011, published 2012).
